biological target: T1, mTOR (Homo sapiens, UniProt P42345); test: In Vitro mTOR Kinase Assay (Echo), Test (a)(ii); type: biochemical; details: read-out: mTOR Kinase Assay (Echo)
T1 construct: FLAG; made in house
Summary of the method: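 AlphaScreen read-out: biotinylated substrate phosphorylation was detected with anti-p70 S6K (T389) 1A5 antibody, Protein A acceptor and streptavidin donor beads after overnight dark incubation at room temperature. Enzyme was FLAG-mTOR 1362-2549 from stable HEK293 cells.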

T1 sequence (P42345 1362-2549): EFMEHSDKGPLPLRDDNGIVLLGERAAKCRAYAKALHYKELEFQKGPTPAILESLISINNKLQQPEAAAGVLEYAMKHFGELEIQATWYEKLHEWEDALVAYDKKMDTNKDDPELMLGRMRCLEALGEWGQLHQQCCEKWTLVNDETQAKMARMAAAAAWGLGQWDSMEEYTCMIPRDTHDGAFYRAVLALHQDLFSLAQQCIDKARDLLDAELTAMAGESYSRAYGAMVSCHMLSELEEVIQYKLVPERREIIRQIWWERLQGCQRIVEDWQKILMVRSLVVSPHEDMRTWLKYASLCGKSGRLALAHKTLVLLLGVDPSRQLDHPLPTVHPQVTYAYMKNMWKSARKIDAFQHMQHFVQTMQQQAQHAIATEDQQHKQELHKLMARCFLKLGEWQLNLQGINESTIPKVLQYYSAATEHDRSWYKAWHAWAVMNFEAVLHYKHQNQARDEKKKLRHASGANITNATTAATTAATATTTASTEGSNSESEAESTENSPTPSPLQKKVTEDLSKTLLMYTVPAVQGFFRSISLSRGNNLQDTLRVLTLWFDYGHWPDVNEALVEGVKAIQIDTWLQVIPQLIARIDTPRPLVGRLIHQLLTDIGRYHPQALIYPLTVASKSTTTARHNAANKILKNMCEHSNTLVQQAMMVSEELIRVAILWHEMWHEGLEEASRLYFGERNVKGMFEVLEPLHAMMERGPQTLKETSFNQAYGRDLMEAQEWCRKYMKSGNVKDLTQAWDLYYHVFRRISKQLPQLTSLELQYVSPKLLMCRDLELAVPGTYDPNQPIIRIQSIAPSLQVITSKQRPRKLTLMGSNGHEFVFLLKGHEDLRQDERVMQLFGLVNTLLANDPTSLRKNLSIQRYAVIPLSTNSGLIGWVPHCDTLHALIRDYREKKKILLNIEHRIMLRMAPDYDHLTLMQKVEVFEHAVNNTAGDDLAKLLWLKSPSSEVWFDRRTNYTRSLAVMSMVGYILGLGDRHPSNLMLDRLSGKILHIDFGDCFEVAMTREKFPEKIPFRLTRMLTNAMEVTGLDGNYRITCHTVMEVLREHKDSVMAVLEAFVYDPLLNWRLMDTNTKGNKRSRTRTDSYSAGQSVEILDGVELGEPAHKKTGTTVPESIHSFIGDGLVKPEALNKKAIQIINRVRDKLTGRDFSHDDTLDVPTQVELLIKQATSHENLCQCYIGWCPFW

IC50 [nM]	Structure (SMILES)
3.15	CNC(=O)Nc1ccc(-c2nc(N3CCOC[C@@H]3C)cc(C3(S(=O)(=O)C(C)C)CC3)n2)cc1 [Example 7, 3-Methyl-1-[4-[4-[(3S)-3-methylmorpholin-4-yl]-6-(1-propan-2-ylsulfonylcyclopropyl)pyrimidin-2-yl]phenyl]urea]
2.31	CCNC(=O)Nc1ccc(-c2nc(N3CCOC[C@@H]3C)cc(C3(S(=O)(=O)C(C)C)CC3)n2)cc1 [Example 7a, 1-ethyl-3-[4-[4-[(3S)-3-methylmorpholin-4-yl]-6-(1-propan-2-ylsulfonylcyclopropyl)pyrimidin-2-yl]phenyl]urea]
18.1	CC(C)NC(=O)Nc1ccc(-c2nc(N3CCOC[C@@H]3C)cc(C3(S(=O)(=O)C(C)C)CC3)n2)cc1 [Example 7b, 1-[4-[4-[(3S)-3-methylmorpholin-4-yl]-6-(1-propan-2-ylsulfonylcyclopropyl)pyrimidin-2-yl]phenyl]-3-propan-2-yl-urea]
6.46	CC(C)S(=O)(=O)C1(c2cc(N3CCOC[C@@H]3C)nc(-c3ccc(NC(=O)NC4CCC4)cc3)n2)CC1 [Example 7c, 3-cyclobutyl-1-[4-[4-[(3S)-3-methylmorpholin-4-yl]-6-(1-propan-2-ylsulfonylcyclopropyl)pyrimidin-2-yl]phenyl]urea]
3.8	CC(C)S(=O)(=O)C1(c2cc(N3CCOC[C@@H]3C)nc(-c3ccc(NC(=O)NC4CC4)cc3)n2)CC1 [Example 7d, 3-cyclopropyl-1-[4-[4-[(3S)-3-methylmorpholin-4-yl]-6-(1-propan-2-ylsulfonylcyclopropyl)pyrimidin-2-yl]phenyl]urea]
2.12	CC(C)S(=O)(=O)C1(c2cc(N3CCOC[C@@H]3C)nc(-c3ccc(NC(=O)NCCO)cc3)n2)CC1 [Example 7e, 3-(2-hydroxyethyl)-1-[4-[4-[(3S)-3-methylmorpholin-4-yl]-6-(1-propan-2-ylsulfonylcyclopropyl)pyrimidin-2-yl]phenyl]urea]
9.15	CC(C)S(=O)(=O)C1(c2cc(N3CCOC[C@@H]3C)nc(-c3ccc(NC(=O)NC(C)(C)CO)cc3)n2)CC1 [Example 7f, 3-(1-hydroxy-2-methyl-propan-2-yl)-1-[4-[4-[(3S)-3-methylmorpholin-4-yl]-6-(1-propan-2-ylsulfonylcyclopropyl)pyrimidin-2-yl]phenyl]urea]
211	CC(C)S(=O)(=O)C1(c2cc(N3CCOC[C@@H]3C)nc(-c3ccc(NC(=O)NCCN(C)C)cc3)n2)CC1 [Example 7g, 3-(2-dimethylaminoethyl)-1-[4-[4-[(3S)-3-methylmorpholin-4-yl]-6-(1-propan-2-ylsulfonylcyclopropyl)pyrimidin-2-yl]phenyl]urea]
11.6	CCCNC(=O)Nc1ccc(-c2nc(N3CCOC[C@@H]3C)cc(C3(S(=O)(=O)C(C)C)CC3)n2)cc1 [Example 7h, 3-[4-[4-[(3S)-3-methylmorpholin-4-yl]-6-(1-propan-2-ylsulfonylcyclopropyl)pyrimidin-2-yl]phenyl]-1-propyl-urea]
18.2	CC(C)CNC(=O)Nc1ccc(-c2nc(N3CCOC[C@@H]3C)cc(C3(S(=O)(=O)C(C)C)CC3)n2)cc1 [Example 7i, 1-[4-[4-[(3S)-3-methylmorpholin-4-yl]-6-(1-propan-2-ylsulfonylcyclopropyl)pyrimidin-2-yl]phenyl]-3-(2-methylpropyl)urea]
10.5	CC(C)S(=O)(=O)C1(c2cc(N3CCOC[C@@H]3C)nc(-c3ccc(NC(=O)NCCCO)cc3)n2)CC1 [Example 7j, 3-(3-hydroxypropyl)-1-[4-[4-[(3S)-3-methylmorpholin-4-yl]-6-(1-propan-2-ylsulfonylcyclopropyl)pyrimidin-2-yl]phenyl]urea]
4.82	CC(C)S(=O)(=O)C1(c2cc(N3CCOC[C@@H]3C)nc(-c3ccc(NC(=O)Nc4ccc(C(F)(F)F)cc4)cc3)n2)CC1 [Example 7k, 1-[4-[4-[(3S)-3-methylmorpholin-4-yl]-6-(1-propan-2-ylsulfonylcyclopropyl)pyrimidin-2-yl]phenyl]-3-[4-(trifluoromethyl)phenyl]urea]
9.13	CC(C)S(=O)(=O)C1(c2cc(N3CCOC[C@@H]3C)nc(-c3ccc(NC(=O)Nc4ccccn4)cc3)n2)CC1 [Example 7l, 1-[4-[4-[(3S)-3-methylmorpholin-4-yl]-6-(1-propan-2-ylsulfonylcyclopropyl)pyrimidin-2-yl]phenyl]-3-pyridin-2-yl-urea]
5.04	CC(C)S(=O)(=O)C1(c2cc(N3CCOC[C@@H]3C)nc(-c3ccc(NC(=O)Nc4cnn(C)c4)cc3)n2)CC1 [Example 7m, 1-[4-[4-[(3S)-3-methylmorpholin-4-yl]-6-(1-propan-2-ylsulfonylcyclopropyl)pyrimidin-2-yl]phenyl]-3-(1-methylpyrazol-4-yl)urea]
0.576	CNC(=O)Nc1ccc(-c2nc(N3CCOC[C@@H]3C)cc(C3(S(=O)(=O)c4ccc(F)cc4)CC3)n2)cc1 [Example 8, 1-[4-[4-[1-(4-Fluorophenyl)sulfonylcyclopropyl]-6-[(3S)-3-methylmorpholin-4-yl]pyrimidin-2-yl]phenyl]-3-methyl-urea]
0.96	CCNC(=O)Nc1ccc(-c2nc(N3CCOC[C@@H]3C)cc(C3(S(=O)(=O)c4ccc(F)cc4)CC3)n2)cc1 [Example 8a, 1-ethyl-3-[4-[4-[1-(4-fluorophenyl)sulfonylcyclopropyl]-6-[(3S)-3-methylmorpholin-4-yl]pyrimidin-2-yl]phenyl]urea]
1.23	C[C@H]1COCCN1c1cc(C2(S(=O)(=O)c3ccc(F)cc3)CC2)nc(-c2ccc(NC(=O)NC3CC3)cc2)n1 [Example 8b, 3-cyclopropyl-1-[4-[4-[1-(4-fluorophenyl)sulfonylcyclopropyl]-6-[(3S)-3-methylmorpholin-4-yl]pyrimidin-2-yl]phenyl]urea]
1.85	CC(C)NC(=O)Nc1ccc(-c2nc(N3CCOC[C@@H]3C)cc(C3(S(=O)(=O)c4ccc(F)cc4)CC3)n2)cc1 [Example 8c, 1-[4-[4-[1-(4-fluorophenyl)sulfonylcyclopropyl]-6-[(3S)-3-methylmorpholin-4-yl]pyrimidin-2-yl]phenyl]-3-propan-2-yl-urea]
1.34	C[C@H]1COCCN1c1cc(C2(S(=O)(=O)c3ccc(F)cc3)CC2)nc(-c2ccc(NC(=O)NC3CCC3)cc2)n1 [Example 8d, 3-cyclobutyl-1-[4-[4-[1-(4-fluorophenyl)sulfonylcyclopropyl]-6-[(3S)-3-methylmorpholin-4-yl]pyrimidin-2-yl]phenyl]urea]
8.82	C[C@H]1COCCN1c1cc(C2(S(=O)(=O)c3ccc(F)cc3)CC2)nc(-c2ccc(NC(=O)NC(C)(C)CO)cc2)n1 [Example 8f, 1-[4-[4-[1-(4-fluorophenyl)sulfonylcyclopropyl]-6-[(3S)-3-methylmorpholin-4-yl]pyrimidin-2-yl]phenyl]-3-(1-hydroxy-2-methyl-propan-2-yl)urea]
61.3	C[C@H]1COCCN1c1cc(C2(S(=O)(=O)c3ccc(F)cc3)CC2)nc(-c2ccc(NC(=O)NCCN(C)C)cc2)n1 [Example 8g, 3-(2-dimethylaminoethyl)-1-[4-[4-[1-(4-fluorophenyl)sulfonylcyclopropyl]-6-[(3S)-3-methylmorpholin-4-yl]pyrimidin-2-yl]phenyl]urea]
1.76	CCCNC(=O)Nc1ccc(-c2nc(N3CCOC[C@@H]3C)cc(C3(S(=O)(=O)c4ccc(F)cc4)CC3)n2)cc1 [Example 8h, 3-[4-[4-[1-(4-fluorophenyl)sulfonylcyclopropyl]-6-[(3S)-3-methylmorpholin-4-yl]pyrimidin-2-yl]phenyl]-1-propyl-urea]
19.8	CC(C)CNC(=O)Nc1ccc(-c2nc(N3CCOC[C@@H]3C)cc(C3(S(=O)(=O)c4ccc(F)cc4)CC3)n2)cc1 [Example 8i, 1-[4-[4-[1-(4-fluorophenyl)sulfonylcyclopropyl]-6-[(3S)-3-methylmorpholin-4-yl]pyrimidin-2-yl]phenyl]-3-(2-methylpropyl)urea]
0.751	C[C@H]1COCCN1c1cc(C2(S(=O)(=O)c3ccc(F)cc3)CC2)nc(-c2ccc(NC(=O)NCCCO)cc2)n1 [Example 8j, 1-[4-[4-[1-(4-fluorophenyl)sulfonylcyclopropyl]-6-[(3S)-3-methylmorpholin-4-yl]pyrimidin-2-yl]phenyl]-3-(3-hydroxypropyl)urea]
17.3	C[C@H]1COCCN1c1cc(C2(S(=O)(=O)c3ccc(F)cc3)CC2)nc(-c2ccc(NC(=O)Nc3ccc(C(F)(F)F)cc3)cc2)n1 [Example 8k, 1-[4-[4-[1-(4-fluorophenyl)sulfonylcyclopropyl]-6-[(3S)-3-methylmorpholin-4-yl]pyrimidin-2-yl]phenyl]-3-[4-(trifluoromethyl)phenyl]urea]
1.36	C[C@H]1COCCN1c1cc(C2(S(=O)(=O)c3ccc(F)cc3)CC2)nc(-c2ccc(NC(=O)Nc3cnn(C)c3)cc2)n1 [Example 8m, 1-[4-[4-[1-(4-fluorophenyl)sulfonylcyclopropyl]-6-[(3S)-3-methylmorpholin-4-yl]pyrimidin-2-yl]phenyl]-3-(1-methylpyrazol-4-yl)urea]
1.8	C[C@H]1COCCN1c1cc(C2(S(=O)(=O)C3CCCC3)CC2)nc(-c2ccc(NC(=O)NC3CC3)cc2)n1 [Example 9, 1-[4-[4-(1-Cyclopentylsulfonylcyclopropyl)-6-[(3S)-3-methylmorpholin-4-yl]pyrimidin-2-yl]phenyl]-3-cyclopropyl-urea]
12.9	C[C@H]1COCCN1c1cc(C2(S(=O)(=O)C3CCCC3)CC2)nc(-c2ccc(NC(=O)NC3CCC3)cc2)n1 [Example 9a]
15.1	CC(C)NC(=O)Nc1ccc(-c2nc(N3CCOC[C@@H]3C)cc(C3(S(=O)(=O)C4CCCC4)CC3)n2)cc1 [Example 9d]
1.87	CCNC(=O)Nc1ccc(-c2nc(N3CCOC[C@@H]3C)cc(C3(S(=O)(=O)C4CCCC4)CC3)n2)cc1 [Example 9e]

same assay, conditions: table of enzyme assay Test (a)(ii); read-out: Test (a)(ii) IC50

IC50 [nM]	Structure (SMILES)
0.959	CNC(=O)Nc1ccc(-c2nc(N3CCOC[C@@H]3C)cc(C3(S(=O)(=O)c4ccc(F)cc4)CC3)n2)cc1 [Example 8, 1-[4-[4-[1-(4-Fluorophenyl)sulfonylcyclopropyl]-6-[(3S)-3-methylmorpholin-4-yl]pyrimidin-2-yl]phenyl]-3-methyl-urea]
78.4	C[C@H]1COCCN1c1cc(C2(S(=O)(=O)c3ccc(F)cc3)CC2)nc(-c2ccc(NC(=O)NCCN(C)C)cc2)n1 [Example 8g, 3-(2-dimethylaminoethyl)-1-[4-[4-[1-(4-fluorophenyl)sulfonylcyclopropyl]-6-[(3S)-3-methylmorpholin-4-yl]pyrimidin-2-yl]phenyl]urea]
8.13	C[C@H]1COCCN1c1cc(C2(S(=O)(=O)c3ccc(F)cc3)CC2)nc(-c2ccc(NC(=O)Nc3ccccn3)cc2)n1 [Example 8l, 1-[4-[4-[1-(4-fluorophenyl)sulfonylcyclopropyl]-6-[(3S)-3-methylmorpholin-4-yl]pyrimidin-2-yl]phenyl]-3-pyridin-2-yl-urea]
